Among the data in patent US5244795A, “Processes for preparing cholesterol lowering compounds” (Merck & Co., Inc., priority 1992, dated 1993) are zone quality qualifier values, retold here.

Test in all cases: FISP disc diffusion assay
Common to all, as to type: cell-based
Common to all, as to set-up: key: F: clear zone, fuzzy edges; S: slightly hazy zone (some growth observed throughout zone); H: hazy zone (considerable growth observed throughout zone); V: very hazy zone (zone of inhibition is barely discernable); R: zone displays a ring of resistant growth; no qualifier: clear zone throughout, sharp edges
What all share (details): 250 μg/ml in CH2Cl2
(In general: In agar diffusion tests the substance spreads into inoculated agar from a disc or well.)

The subject of assay [1] is Aspergillus flavus. The text has this:
(§1) The FISP assay employs disc diffusion susceptibility testing methods to generate a spectrum of activity against a panel of representative yeasts, filamentous fungi and bacteria.
(§2) The filamentous fungi used in the assay were Penicillium sp. Aspergillus niger, Trichoderma sp., Phoma sp., Trichoderma lignorum, Fusarium oxysporum, Ustilago maydis, Ceratocystis ulmi, Alternaria soloni, Verticillium serrae, Botrytis allii, Scopulariopsis communis, Cephalosporium sp., Cercospora beticola, Rhizomucor miehei, Aspergillus flavus and Aspergillus fumigatus.
(§3) For carrying out the assay, seeded assay plates are prepared in the following manner according to the type of assay strain.
(§4) Inocula for filamentous fungi are prepared by scraping the surface of stock plates maintained on potato dextrose agar with a moistened sterile dacron swab. The spores and mycelia are then suspended in 10 milliliters of sterile potato dextrose broth and adjusted to 65 percent transmission at 660 nm.
(§5) Assay plates for the yeasts and filamentous fungi are prepared by diluting the inoculum into appropriate molten agar medium, cooled to 45° C. to obtain a final concentration of 4 percent.
(§6) The seeded agar media thus prepared are dispensed into petri dishes for assays (11 ml per dish).
(§7) The samples to be tested for production of antifungal agent are applied to 6.2 mm filter paper discs (25 μl/disc) and air dried at 24° C. When the sample to be tested is crude broth, it may be centrifuged prior to application. The discs bearing the material to be tested are then applied employing sterile conditions to the seeded assay plates. The assay plates are then incubated at either 28° C. or 37° C. for 24 hours. In one of the assays for Bacillus subtilis, the sample is applied to a disc previously impregnated with 4M potassium chloride at 25 μl/disc and then air dried.
(§8) Following incubation, the inhibition zones are measured and recorded. The measurements are made from the extreme edge where growth differs from the background zone. The zones are noted as to appearance as fuzzy edge and clear center, hazy throughout, slightly hazy, very hazy or ringed.
(§9) FISP data is reported as the diameter (in mm.) of the zone of inhibition of growth in agar diffusion assays. The zone is determined by measuring growth that differs from the background lawn. A qualifier is also added to describe the zone quality as listed below: no qualifier: clear zone throughout, sharp edges

Assay [2] deals with Aspergillus fumigatus.
Text: as §1, §2, §3, §4, §5, §6, §7, §8, §9

Assay [3] has as its system Botrytis allii.
Text: as §1, §2, §3, §4, §5, §6, §7, §8, §9

Assay [4] relates to Ceratocystis ulmi.
Text: as §1, §2, §3, §4, §5, §6, §7, §8, §9

For assay [5], the system named is Rhizomucor miehei.
Text: as §1, §2, §3, §4, §5, §6, §7, §8, §9

In assay [6] the test system is Scopulariopsis communis.
Text: as §1, §2, §3, §4, §5, §6, §7, §8, §9

The test system of assay [7] is Brettanomyces bruxellensis.
Text: as §1
(§10) The yeasts employed in the assay are Saccharomyces cerevisiae, Candida albicans, Candida tropicalis, Candida rugosa, Brettanomyces bruxellensis, Torulospora hansenii, Candida guilliermondi, Candida pseudotropicalis, Torulopsis glabrata, Cryptococcus albidus, Cryptococcus laurentii and Kluyveromyces fragilis.
as §3
(§11) Inocula for yeasts and bacterial strains are prepared from overnight broth cultures then diluted into potato dextrose agar to a final concentration of either 40 percent or 70 percent transmission at 660 nm.
as §5, §6, §7, §8, §9

The test system of assay [8] is Candida pseudotropicalis.
Text: as §1, §10, §3, §11, §5, §6, §7, §8, §9

The test system of assay [9] is Candida rugosa.
Text: as §1, §10, §3, §11, §5, §6, §7, §8, §9

The subject of assay [10] is Candida tropicalis.
Text: as §1, §10, §3, §11, §5, §6, §7, §8, §9

Assay [11] concerns Cryptococcus albidus.
Text: as §1, §10, §3, §11, §5, §6, §7, §8, §9

Assay [12] concerns Cryptococcus laurentii.
Text: as §1, §10, §3, §11, §5, §6, §7, §8, §9

Assay [13] relates to Torulospora hansenii.
Text: as §1, §10, §3, §11, §5, §6, §7, §8, §9

As to `CC(/C=C/C=C(\C)C(O)C(C)C(=O)O[C@H]1C[C@H](C)C=C2C=C[C@@]3(C)O[C@@H](O)CC(=O)[C@]3(C)[C@H]21)=C\C=C\C(=O)O` (stereo partly shown) [Compound A], the zone quality qualifier result in assay [1] is listed as “H”; in assay [2] it was “S”; in assay [3] it was “S”; in assay [4] it was “V”; in assay [5] it was “H”; in assay [6], “F”. Besides, the zone quality qualifier entry in [7] is “S”; in assay [8] it was “V”; in [9], “S”; in assay [10] it was “S”; in assay [11], “V”; in [12], “H and V”. Further, the zone quality qualifier result in assay [13] is “H”.
